Measurements: patent US10842851B2, “Relaxin for treating patients afflicted of impaired glucose tolerance” (Immundiagnostik AG, priority 2012, dated 2020)

Tests used:
[1] = test system: patients having type II diabetes or impaired glucose tolerance; assay: HOMA-index in human patients under i.v. H2 relaxin; type: in vivo; conditions: i.v. over 16 hrs
Excerpt: In a study approved by the local ethical committee (Charité, Berlin, Germany) twelve patients (n=12) having type II diabetes or impaired glucose tolerance received intravenous synthetic H2 relaxin over a period of 16 hrs followed by a 24-hr follow-up. The anti-diabetic treatment of those patients was not varied. The improved HOMA-2 model used was in the present example because it reflects better human physiology. A HOMA of >2 indicates a potential insulin resistance; a HOMA of >2.5 beginning insulin resistance and a HOMA>5.0 is an average value of insulin resistance in untreated patients with manifest type-2 diabetes.
Of those twelve patients in this study two patients received sequential treatment for 8 hours each with dosages equivalent to 10 and 30 μg/kg of subject body weight per day, 6 patients received sequential treatment with 240 and 480 μg/kg of subject body weight per day, and another 4 patients received a constant infusion of 960 μg/kg of subject body weight per day. This was completed by follow-up determinations of glucose and insulin levels in serum 24 hours post termination of the i.v. relaxin administration.

[2] = test system: Zucker Diabetic Fatty rats; assay: HOMA-index in ZDF rats under sc relaxin; type: in vivo, rat; conditions: 10-week old male ZDF rats, sc 500 μg/kg per day, within the 48-hour period
Excerpt: The homeostatic model assessment (HOMA=Insulin (μU/mi)×Glucose (mmol/l)/22.5) allows a quantification of insulin resistance and beta-cell function on the basis of mathematical equations describing glucose regulation as a feedback loop (see Matthews D R at al. Diabetologia 1985; 28(7): 412-9); Turner R C et al, Metabolism 1985; 28 (11): 1086-96). In order to assess the effects of relaxin on a diabetic metabolism we determined the HOMA of 10-week old male Zucker Diabetic Fatty rats (#25) pre-, during and post subcutanous administration of porcine relaxin (500 μg/kg rat per day). Thus, we determined the glucose and insulin levels in serum of 25 ZDF rats prior and 48 hours after sc administration of porcine relaxin. This was completed by follow-up determinations of glucose and insulin concentrations in serum 48 hours post the termination of the administration of porcine relaxin.

[3] = Effect of relaxin on glucose levels in blood; conditions: in vivo
[4] = cited from earlier work
[5] = test system: rat insulinoma cells (INS-1 cells); assay: Insulin secretion of INS-1 cells under sustained glucose concentrations (rat insulin ELISA); type: cell-based
Description: In a further study we examined whether porcine relaxin has any effect on insulin expression and/or secretory capacity of pancreatic beta-cells. 2.5×10^5 rat insulinoma cells (INS-1 cells; see Mergler S et al, in Cellular Signalling (2008), doi: 10.1016/j.cellsig.2008.08.015) were plated in a 24-well plate and grown for three days in […] medium with supplements (Moore G. E. et. al., Culture of Normal Human Leukoctyes.” JAMA, v. 199, 519-524 (1967). On the day of the experiment, the medium was removed, and the INS-1 cells were washed three times and then preincubated for 30 min in KRB (Krebs-Ringer buffer: 115 mM NaCl, 5.9 mM KCl, 1.2 mM MgCl2, 1.2 mM NaH2PO4, 1.2 mM Na2PO4, 2.5 mM CaCl2, 25 mM NaHCO3, pH 7.4) comprising 0.5% BSA and 3.3 mM glucose. Cells were washed again with phosphate buffered saline (PBS: 137 mM NaCl, 2.7 mM KCl, 12 mM phosphate, pH 7.4) and incubated with different physiological and pathological glucose concentrations (2.8, 5.6, 11.2, 16.7, 33.2 mmol/L) for 48 hrs. After another washing, the amounts of insulin secreted by the INS-1 cells into the supernatant over another 48 hrs under the very same glucose conditions were determined using a rat insulin ELISA kit (units: ng/dl) (Immundiagnostik AG, Bensheim, Del.—Article No. KA80INSRT1). […]

[6] = over the entire dose range, previous pilot study (Dschietzig et al. 2009); cited from earlier work

human relaxin-2 (H2 relaxin)
homeostatic model assessment (HOMA) in each diabetic patient (FIG. 2A) ([1]; 10 to 960 μg/kg per day, diabetic patients): improved | homeostatic model assessment (HOMA) in non-diabetic subjects ([1]; subjects having an initial HOMA of less than 2.0): no or little impact

porcine relaxin-1 [porcine RLX]
HOMA value of each animal (FIG. 1A) [2]: reduced HOMA value

relaxin
direct effect on glucose levels in blood [3]: not found any direct effect | half-life in vivo [4]: about two | insulin secretion (as determined in cell supernatants) ([5]; 10 nM porcine relaxin-1, baseline and high-glucose conditions, secretion period of 48 hours, INS-1 cells): increased insulin secretion | high glucose-induced down-regulation of insulin expression and/or secretory capacity ([5]; 10 nmol/L porcine relaxin-1, cultured rat INS-1 cells, n=6, P<0.05 vs. control): efficient in preventing | clinically adverse effects [6]: no clinically adverse effects were observed
